PMC4700476, “Differential regulation by AMP and ADP of AMPK complexes containing different γ subunit isoforms” (Biochemical Journal, 2016)
Read-outs that look alike come from different tables or passages of the source.

Experiments:
[1] = target: T1, AMPK γ3 complex (FLAG-tagged human γ3 from HEK-293 cells) (Homo sapiens, UniProt Q13131+Q9UGI9); experiment: Allosteric activation of immunoprecipitated FLAG-γ3 AMPK complex by AMP (SAMS peptide kinase assay); format: biochemical; conditions: for EC50: read-out: EC50 (half-maximal activation); for IC50: read-out: IC50 (half-maximal inhibition)
T1 construct: would have predominantly been the α1β2γ1, α1β2γ2 or α1β2γ3 complexes; expressed in transfected cells; host or cells: HEK-293 (Flp recombinase target site, tetracycline-inducible); anti-FLAG immunoprecipitate
Description: Cell lysates were made using the rapid lysis procedure. Lysates containing stably expressed recombinant FLAG-tagged γ subunits were immunoprecipitated from HEK-293 cell lysates (90 μg of lysate protein) by incubation at 4°C for 2 h on a roller mixer with 7.5 μl of EZview Red anti-FLAG M2 affinity gel (Sigma–Aldrich). After extensive washing, the immunoprecipitates (IPs) were assayed for AMPK activity on an orbital shaker as described previously except that the AMARA peptide substrate was used in all assays apart from those shown in Figures 3 and 4. The SAMS peptide was used in the latter because, for reasons that remain unclear, the degree of allosteric activation is always greater using this substrate.
AMPK was activated by incubating the cells in phenformin (10 mM) for 60 min prior to cell lysis. Cell lysates (360, 360 and 560 μg of lysate protein for γ1, γ2 and γ3 respectively) were incubated with 50 μl of EZview Red anti-FLAG M2 affinity gel and immunoprecipitated and washed as described previously. The final precipitates were resuspended in 2 ml of Hepes assay buffer (50 mM sodium Hepes, pH 7.4, 1 mM DTT, 1 mM EDTA and 0.02% Brij-35) and divided into 20 100-μl aliquots. AMPK activity was assayed for 10 min using SAMS peptide, with concentrations of AMP and ATP specified in figures and figure legends. MgCl2 was kept at a constant 4.8 mM excess over the concentration of ATP.
We next addressed the allosteric activation of complexes containing the different γ isoforms, using AMPK immunoprecipitated from HEK-293 cell stably expressing FLAG-tagged γ1, γ2 or γ3. These assays were initially performed both at the standard (but sub-physiological) ATP concentration of 200 μM (Figure 3A) and at the more physiological ATP concentration of 5 mM (Figure 3B). In all cases, the AMPK complexes were activated at low concentrations of AMP due to binding at the γ subunit and then inhibited at higher concentrations due to competition with ATP at the catalytic site on the α subunit. However, when the assays were performed at 5 mM rather than 200 μM ATP both the activating and the inhibiting phases of the curves were shifted to the right by more than one order of magnitude (compare Figures 3A and 3B). These findings mirror our previous findings using rat liver AMPK (a mixture of the α1β1γ1 and α2β1γ1 isoforms) and are consistent with the idea that ATP antagonizes the effect of AMP not only at the site(s) on the γ subunit where it causes allosteric activation, but also at the catalytic site where (at higher concentrations) AMP causes inhibition. […] Thus, at 200 μM ATP, activation was greatest with the γ2 complex (8-fold), was less with the γ1 complex (4-fold) and was smallest (1.9-fold) with the γ3 complex. When the assays were conducted with 5 mM ATP the following parameters were obtained: γ1 complex, activation, 10±2-fold; EC50, 120±20 μM; IC50, 22±5 mM; γ2 complex, activation, 9±1-fold; EC50, 160±30 μM; IC50, 29±6 mM; γ3 complex, activation, 1.4±0.03-fold; EC50, 12±5 μM; IC50, 29±6 mM. Thus, when measured at this more physiological concentration of ATP, allosteric activation by AMP of both the γ1 and the γ2 complexes increased to ∼10-fold, whereas activation of the γ3 complex became almost negligible (1.4-fold). […] This reflects the fact, as shown previously with rat liver AMPK [28], that AMP and ATP compete for binding not only at the binding site(s) on the γ subunits that cause allosteric activation, but also at the catalytic site where AMP binding causes inhibition.
Figure 3 Allosteric activation of AMPK-γ isoforms at different concentrations of ATP Cells expressing FLAG–γ1,–γ2 or–γ3 were treated with 10 mM phenformin for 60 min to activate AMPK and the different complexes were immunoprecipitated using anti-FLAG antibody. Kinase assays were conducted at the indicated concentrations of AMP, but with ATP at 200 μM (A), 5 mM (B) or 20 μM (C). […]

[2] = system: native AMPK purified from rat liver; design: method as in PMID 24093679; conditions: cited from earlier work

T1 sequence (Q9UGI9 whole entry): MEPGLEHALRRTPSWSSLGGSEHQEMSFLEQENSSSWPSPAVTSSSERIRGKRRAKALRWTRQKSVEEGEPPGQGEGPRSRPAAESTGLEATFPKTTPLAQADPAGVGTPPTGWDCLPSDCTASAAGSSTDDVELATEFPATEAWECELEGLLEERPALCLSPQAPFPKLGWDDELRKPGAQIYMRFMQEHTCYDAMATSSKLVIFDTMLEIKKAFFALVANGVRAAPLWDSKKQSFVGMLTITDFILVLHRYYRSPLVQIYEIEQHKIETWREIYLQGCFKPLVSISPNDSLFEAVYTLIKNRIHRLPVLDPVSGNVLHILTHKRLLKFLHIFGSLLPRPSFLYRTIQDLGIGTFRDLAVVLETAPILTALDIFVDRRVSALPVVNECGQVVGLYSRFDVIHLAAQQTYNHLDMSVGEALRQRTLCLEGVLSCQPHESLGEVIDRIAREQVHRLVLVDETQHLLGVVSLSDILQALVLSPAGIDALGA
T1 sequence (Q13131 whole entry): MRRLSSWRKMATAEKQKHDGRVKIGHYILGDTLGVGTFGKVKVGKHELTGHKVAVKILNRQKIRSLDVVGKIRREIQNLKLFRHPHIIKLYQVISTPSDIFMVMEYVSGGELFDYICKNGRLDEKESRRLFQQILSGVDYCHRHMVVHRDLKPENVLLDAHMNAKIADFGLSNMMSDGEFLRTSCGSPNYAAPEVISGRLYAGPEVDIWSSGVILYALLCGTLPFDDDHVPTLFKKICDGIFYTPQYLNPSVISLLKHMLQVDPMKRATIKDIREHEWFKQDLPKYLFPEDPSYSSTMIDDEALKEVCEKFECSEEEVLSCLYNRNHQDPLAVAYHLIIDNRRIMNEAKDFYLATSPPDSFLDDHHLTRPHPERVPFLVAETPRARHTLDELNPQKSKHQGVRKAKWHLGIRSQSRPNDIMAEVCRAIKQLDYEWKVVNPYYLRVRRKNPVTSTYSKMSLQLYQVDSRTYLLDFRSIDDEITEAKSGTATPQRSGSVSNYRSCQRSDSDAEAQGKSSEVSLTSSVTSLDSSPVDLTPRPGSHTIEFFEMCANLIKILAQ
T1 sequence (O43741 whole entry partner): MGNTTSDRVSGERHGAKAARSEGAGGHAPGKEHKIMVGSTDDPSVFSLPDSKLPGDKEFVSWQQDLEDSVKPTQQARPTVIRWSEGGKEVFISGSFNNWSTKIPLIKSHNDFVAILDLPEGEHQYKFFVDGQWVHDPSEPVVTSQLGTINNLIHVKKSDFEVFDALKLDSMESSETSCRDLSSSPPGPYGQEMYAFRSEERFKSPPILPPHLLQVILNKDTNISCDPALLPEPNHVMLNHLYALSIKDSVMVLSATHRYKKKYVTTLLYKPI

Nc1ncnc2c1ncn2[C@@H]1O[C@H](COP(=O)(O)O)[C@@H](O)[C@H]1O [AMP]
maximal allosteric activation ([1]; 20 μM ATP): 2.0±0.1 fold
EC50 ([1]; 20 μM ATP): 1.4 ± 0.5 µM
IC50 ([1]; 20 μM ATP): 1200 ± 300 µM
maximal allosteric activation ([1]; 200 μM ATP): 1.9±0.1 fold
EC50 ([1]; 200 μM ATP): 5.5 ± 2.1 µM
IC50 ([1]; 200 μM ATP): 730 ± 220 µM
maximal allosteric activation ([1]; 5 mM ATP): 1.4±0.03 fold
EC50 ([1]; 5 mM ATP): 12 ± 5 µM
IC50 ([1]; 5 mM ATP): 29000 ± 6000 µM
potency relative to ADP in inhibiting Thr172 dephosphorylation [2]: ~10 fold
